Data on 9 molecules can be found in USRE48253E1, “Methotrexate adjuvants to reduce toxicity and methods for using the same” (Tosk, Inc., priority 2008, dated 2020).

The target in series [1] is mouse small intestinal UPase enzyme (Mus musculus, UniProt P52624). As to the kind of experiment: UPase inhibition in mouse small intestinal tissue homogenate (HPLC of uracil). It is filed as biochemical. As to the method: A range of TK-112690 doses were studied for the their ability to prevent metabolic breakdown of uridine through the in vitro inhibition of mouse and human small intestinal UPase enzyme. UPase activity was determined by HPLC analysis using UV detection of uracil concentration (UPase catabolizes uridine into uracil and ribose-1-phosphate). The UPase enzyme material was prepared from homogenized mouse and human being small intestinal tissue. TK-112690 was dissolved in water (50 mg/ml) and analyzed for UPase inhibition in aqueous solution containing 5 mM uridine, 0.01 M Tris, 0.01 M phosphate, 1 mM EDTA, and 1 mM DTT. Reactions were performed at 37° C. at pH of 7.3.
The aim of this study was to evaluate TK-112690 […] as an inhibitor of uridine phosphorylase (UPase) enzyme activity. The range of TK-112690 doses studied for ability to prevent metabolic breakdown of uridine, through the in vitro inhibition of mouse and human small intestinal UPase enzyme, was 0, 0.1, 0.5, 1, 5, 10, 50, 100, 500, 1000, 5000 and 10000 μM). Detection of UPase activity was determined by HPLC analysis using UV detection of uracil concentration (UPase catabolizes uridine into uracil and ribose-1-phosphate).
The UPase enzyme material was prepared from homogenized mouse and human being small intestinal tissue. TK-112690 was dissolved in water (50 mg/ml) and analyzed for UPase inhibition in aqueous solution containing 5 mM uridine, 0.01 M Tris, 0.01 M phosphate, 1 mM EDTA, and 1 mM DTT. Reactions were performed at 37° C. at pH of 7.3.
TK-11260 inhibition of mouse and human UPase was analyzed by reverse phase HPLC using UV detection. HPLC analysis was performed at ambient temperature with a Water 2695 Alliance system equipped with a C18 ECONOSIL 5 U ALLtech column. 20 μl of UPase reaction samples were auto-injected onto column. Mobile phase consisted of water eluting for first 2.5 ml and acetonitrile gradient to 100% in 12.5 ml (flow rate 0.5 ml/min). The outlet fluent was monitored by UV absorption in the range of 240-320 nm. UPase enzymatic activity was based on the AUC of the uracil peaks.

In another series the test system is Drosophila melanogaster. In words: Fly Study I: protection from MTX-induced lethality. It is filed as in vivo. The conditions noted are these: with MTX 0.4 mg; TK-112690 0.005 to 0.1 mg. As to the method:
In this study, Drosophila melanogaster eggs (50 eggs per vial) were treated with either 0.005 mg TK-112690+0.4 mg MTX (Group 1), 0.01 mg TK-112690+0.4 mg MTX (Group 2), 0.04 mg TK-112690+0.4 mg MTX (Group 3), 0.1 mg TK-112690+0.4 mg MTX (Group 4), 0.4 mg MTX alone (Group 5) or saline blank (Group 6). Two vials of eggs for each dose group were evaluated for viability (viable flies plus pupae).
The efficacy of cancer chemotherapy can be improved if agents are available to reduce the adverse events associated with treatment with cytotoxic agents. To this end, Drosophila melanogaster (commonly know as the fruit fly) is an ideal organism to screen chemical compounds for such side-effect-reducing agents. This study is aimed at finding a dose of a 2,2′-anhydropyrimidine test article that protects against MTX-induced lethality in insects.
Increasing amounts of a 2,2′-anhydropyrimidine test article (typically 0.03 to 0.1 mg) are mixed in an aqueous solution with 0.3 (or 0.4) mg MTX. Four milliliters (mL) of a 2,2′-anhydropyrimidine test article+MTX solutions are added to an appropriate amount of instant fly medium. Fruit fly eggs are added to a 2,2′-anhydropyrimidine test article+MTX treated medium and incubated for up to 31 days. After the 31 day incubation, each assay is scored by the number of mature fly and pupae per vial.
The assays are set up in clear sterile polystyrene narrow diameter vials from Applied Scientific (Hampton, N.H.). Vials are stored in trays and incubated in a darkened 25° C. incubator.
Reagents and materials used are: 50 mg/mL MTX in H2O (pH 8), 20 mg/mL of the 2,2′-anhydropyrimidine test article in H2O, water, sterile polystyrene narrow diameter vials from Applied Scientific, Instant Drosophila Food Medium, Oregon-R Drosophila melanogaster, 25° C. incubator, and 15 mL polystyrene conical tubes
Each assay is performed in a separate fly vial. […] Pre-measured amounts of instant drosophila medium are added to each assay to achieve optimal hydration level. […] Assays are scored by the number of dead pupae or adult flies per vial.

The test system of another series is CCRF-CEM cells. As to the kind of experiment: Cell Culture Study I: MTX cytotoxicity, alamarBlue. It is filed as cell-based, human. To be noted: 72 hours. As to the method:
In this study, CCRF-CEM cells purchased from ATCC were cultured and then 12 tubes containing approximately 10^6 cells each treated for 72 hours with media (Group1), MTX 0.03 μM (Group2), MTX+Leucovorin 1 μM (Group3), MTX+Leucovorin 10 μM (Group4), MTX+Leucovorin 100 μM (Group5), MTX+TK-112690 1 μM (Group6), MTX+TK-112690 10 μM (Group7) and MTX+TK-112690 100 μM (Group8). […] Viability was measured as percent reduction of alamarBlue absorbance.
The tumor cell line CCR-CEM (human T-cell acute lymphoblastic leukemia) is obtained from American Type Culture Collection (CRL-1593.2) and cultured in accordance with the product information sheet with the following exceptions: 55.3 cm^2 Petri dishes are used instead of 75 cm^2 culture flasks, and 1% penicillin-streptomycin solution (HyClone SV30010) and 1% GlutaMAX™ (Gibco 35050) are added to the culture medium.
TK-112690, the representative 2,2′-anhydropyrimidine test article, is dissolved in 40% DMSO, sterile filtered then diluted with sterile distilled water to obtain initial working solutions of 10, 100 and 1000 μM. In testing, a 100 fold dilution is made in culture media to give final assay concentrations of 0.1, 1.0 and 10.0 μM. MTX (SAFC Biosciences M8407) is dissolved in sterile distilled water and 5 N NaOH then sterile filtered. The final pH of the stock solution is 7.8 and working solutions are made with sterile distilled water for final assay concentrations of 30, 3.0, 0.3, 0.03 and 0.003 μM. Leucovorin (Sigma F-7878) is dissolved in sterile distilled water, sterile filtered and diluted with sterile distilled water for final assay concentrations of 0.1, 1.0 and 10.0 μM.
Aliquots of 100 μL of cell suspension are plated in 96 well microtiter plates (Corning costar 3595) and placed in an atmosphere of 5% CO2 at 37° C. (Fisher Scientific Isotemp 3500 CO2 Incubator). After 24 hours, 100 μL of growth medium [RPMI-1640 w/L-glutamine (Cambrex 12-702Q) fortified with sodium pyruvate (HyClone SH30239.01), fetal bovine serum (SAFC Biosciences 12107C) and HEPES buffer (Gibco 15630)] and 2 μL of test solution or vehicle are added respectively per well and the plates incubated for an additional 72 hour incubation. MTX is evaluated at concentrations of 0.003, 0.03, 0.30 and 3.0 μM alone or in combination with either a 2,2′-anhydropyrimidine test article or Leucovorin at concentrations of 0.1, 1.0, 10.0 μM. At the end of incubation, the efficacy of anti-cell proliferation is determined by optical absorbance at λ=570 and 600 nm [Spectramax 250 (Molecular Devices)] in accordance with the standard alamarBlue™ (Biosource) protocol.
Group 1 is the cell control (media treated). Group 2 corresponds to cells treated with 0.03 μM MTX. Group 3 are cells treated with 1.0 μM Leucovorin. Group 4 are cells treated with 0.1 μM Leucovorin. Group 5 are cells treated with 10 μM TK-112690. Group 6 are cells treated with MTX+10 μM TK-112690. Group 7 are cells treated with MTX+1.0 μM TK-112690. Group 8 MTX+0.1 μM TK-112690.

The mark [2] stands for this setting: Table 3, murine UPase, test method of Experiment IX, read-out: UPase IC50.

Each structure is given as a SMILES string. Like-named read-outs stand apart in the source and are kept apart here.

In general, IC50 refers to the concentration needed to halve the response being measured.

Chain of mouse small intestinal UPase enzyme (P52624 whole entry, looked up): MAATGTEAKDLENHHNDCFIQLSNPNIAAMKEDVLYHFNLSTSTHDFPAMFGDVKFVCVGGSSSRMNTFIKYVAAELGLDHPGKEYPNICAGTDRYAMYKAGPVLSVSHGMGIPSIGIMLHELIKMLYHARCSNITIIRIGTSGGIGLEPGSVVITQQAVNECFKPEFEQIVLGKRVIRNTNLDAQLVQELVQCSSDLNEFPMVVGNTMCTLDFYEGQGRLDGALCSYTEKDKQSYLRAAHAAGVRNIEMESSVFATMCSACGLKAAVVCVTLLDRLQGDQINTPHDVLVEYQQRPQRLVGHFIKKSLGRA

In the case of `COCc1cn2c(nc1=O)O[C@H]1[C@H](O)[C@@H](CO)O[C@H]12` [TK-000009], in series [1] (setting [2]), the IC50 was less than 100 µM. Besides, the “protection against MTX-induced lethality in the Fly model” value in the series with Drosophila melanogaster is “active”.
As for `O=c1nc2n(cc1COCc1ccccc1)[C@@H]1O[C@H](CO)[C@@H](O)[C@@H]1O2` [TK-000008], the IC50 in series [1] (setting [2]) is less than 100 µM.
Take `Cc1ccc(SCc2cn3c(nc2=O)O[C@H]2C(O)[C@@H](CO)O[C@H]23)cc1` (some centres unmarked) [TK-000016]: the IC50 in series [1] (5 mM uridine, 37° C., pH 7.3, read-out: IC50, mouse small intestinal (murine) UPase) was less than 100 µM.
Take `Cc1cn2c(nc1=O)O[C@H]1[C@H](O)[C@@H](CN=[N+]=[N-])O[C@H]12` [TK-000011]: the IC50 in series [1] (setting [2]) is greater than 100 µM.
Take `CCOCc1cn2c(nc1=O)O[C@H]1[C@H](O)[C@@H](CO)O[C@H]12` [TK-000007]: the IC50 in series [1] (setting [2]) was less than 100 µM.
For `O=c1nc2n(cc1NCc1ccccc1)[C@@H]1O[C@H](CO)[C@@H](O)[C@@H]1O2` [TK-000006], the IC50 in series [1] (setting [2]) was less than 100 µM.
Regarding `Cc1cn2c(nc1=O)O[C@H]1C(O)[C@@H](CF)O[C@H]12` (some centres unmarked) [TK-000015], the IC50 in series [1] (setting [2]) is greater than 100 µM.
The same measure, in the same setting: next, `CC(=N)OCc1cn2c(nc1=O)O[C@H]1[C@H](O)[C@@H](CO)O[C@H]12` [TK-000010]: greater than 100 µM.
As to `Nc1nc2c(c(=O)[nH]1)N(C=O)C(CNc1ccc(C(=O)N[C@@H](CCC(=O)O)C(=O)O)cc1)CN2` (some centres unmarked) [Leucovorin], the “effect on MTX cytotoxicity (viability, alamarBlue)” value in the series with CCRF-CEM cells (combined with MTX 0.03 μM) is listed as “statistically different than Group 2”. Further, the “viability, agent alone vs control” value with CCRF-CEM cells (without MTX) is recorded as “not statistically different than control”.
